Source: patent publication US20220323583A1, “Pharmaceutical Formulations of Bi-Specific Diabodies and Use of the Same” (MacroGenics, Inc., priority 2019, published 2022)

What was measured:
[1] = RP-HPLC for BA and MP recovery (preservative concentration); type: physicochemical; details: for Tested Benzyl Alcohol Concentration: Study 2, diluted DART-A DP formulation in cassette 25° C., 100 rpm, 5000 ng/mL, expected 0.86%
Method: Preservative recovery was measured using Reverse Phase (RP) HPLC analysis. The RP-HPLC configuration included a photodiode array (PDA) detector (λBA=254 nm, λMP=340 nm), a mobile phase composition of 40% acetonitrile, 0.1% formic acid and a Zorbax® 5 μm Eclipse-XDB-C18 80 Å liquid chromatography column. Samples were diluted ten-fold. The column temperature was set to 40±5° C. 50 μL of solution was injected for each 10-minute run.

[2] = system: USP recommended microbes; assay: Microbial challenge testing, statements on several microbes together; type: cell-based
Method: Microbial challenge testing was performed to evaluate the preservative effect of stabilizer solutions containing ≤0.17% BA and ≤0.1% MP. Microbial challenge testing was chosen as it more accurately represents the proposed dose preparation and dilution scheme where doses will be prepared aseptically and the number of microbes that may be introduced to the solution would be low. Microbial challenge testing was performed in two stages. The first stage determined the effective concentrations of BA and MP while the second stage tested the final formulation according to USP specifications. Each stage is described in detail below.
To confirm the anti-microbial properties of Stabilizer 2 once diluted in saline (i.e., in the dosing solution), microbial growth testing was performed by SGS Life Sciences. The USP recommended microbes required for testing are listed below in Table 26.
A high dosing solution (150 kg patient at 1,000 ng/kg cohort) was prepared to represent the maximum preservative dilution. […] Microbial growth studies were performed on all five USP recommended microbes with a target concentration between 10 and 100 CFU/mL. The microbial growth results are listed below in Table 27.
Microbial Challenge Testing was performed to evaluate the preservative effect of stabilizer solutions. In short, high concentration (1250 ng/mL) dosing solution was prepared according Table 36. USP<51> recommended microbes were introduced to the solution with a target concertation between 10 and 100 CFU/mL. Solutions were stored at the USP<51> recommended temperature for each microbe and at predetermined time points, samples were collected. Testing of samples was performed according to USP<1227>. The threshold for no microbial growth was established to be not greater than 0.5 log colony count compared to the initial concentration of microbe.

[3] = Stabilizer solution optimizing studies (turbidity, miscibility, pH, MP in solution); type: physicochemical
Method: Since the BA concentration in the stabilizer solution is limited due to patient safety concerns, to increase the preservative effectiveness duration, the MP concentration in the stabilizer solution could be increased to 0.1%. However, when the concentrated stabilizer solution is presented as a 20 mL additive volume, this level of MP leads to high solution pH (≥9.0), solution turbidity, and PS80 immiscibility. To address these issues, a series of stabilizer solution optimizing studies were performed to determine the final concentrated stabilizer solution.
The first study explored lower levels of PS80 in the concentrated stabilizer solution to determine if the turbidity and solution instability or immiscibility issues can be addressed. […] However, this concentration of PS80 remains turbid at room temperature. A subsequent study evaluating larger concentrated stabilizer solution additive volume presentations was performed to determine if lowering the levels of all excipients in the concentrated stabilizer solution helps address the high turbidity issue. […] To determine optimal concentrated stabilizer solution pH, studies varying the formulation buffer strength were performed. […] As a result, variable concentrations of MP were evaluated in a subsequent study. […] Based on the results of the previous PS80 and MP studies, a final study was performed evaluating variable concentrations of MP and PS80 to determine the optimal combination that addresses solution turbidity at an acceptable pH. […] When 40 mL of this stabilizer solution is diluted in a 250 mL saline bag, the resulting dosing solution will contain 0.17% BA and 0.055% MP. […] As a result, the preservative effectiveness of the re-formulated Stabilizer 2 solution having final preservative levels of 0.17% BA and 0.05% MP in the dosing solution, was examined through microbial challenge testing of USP recommended microbes.
However, BA levels above 15.5 mg/mL result in solution instability or immiscibility and MP levels above 5.3 mg/mL produce a final solution above pH 8.4. […]

[4] = molecular target: T1, soluble recombinant human IL-3 receptor alpha (rhIL3Rα) (Homo sapiens, UniProt P26951); assay: ELISA (rhIL3Rα) DART-A quantitation assay (concentration, protein recovery); details: 0.05 mg/mL PS80 or 0.1 mg/mL PS80
T1 construct: soluble recombinant human IL-3 receptor alpha (rhIL3Rα)
T1 sequence (P26951 19-305 limits assumed): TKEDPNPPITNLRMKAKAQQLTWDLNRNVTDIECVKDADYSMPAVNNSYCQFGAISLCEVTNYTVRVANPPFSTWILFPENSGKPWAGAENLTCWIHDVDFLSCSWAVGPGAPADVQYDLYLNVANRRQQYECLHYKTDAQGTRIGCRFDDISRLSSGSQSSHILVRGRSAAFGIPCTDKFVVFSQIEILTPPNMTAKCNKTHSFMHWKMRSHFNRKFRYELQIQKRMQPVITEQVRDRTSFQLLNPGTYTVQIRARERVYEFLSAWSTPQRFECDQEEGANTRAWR
Method: In brief, the assay plate was coated with soluble recombinant human IL-3 receptor alpha (rhIL3Rα) overnight. […] After addition of MSD Read Buffer, the plate was inserted into the Sector Imager 2400 Plate Reader. When a voltage was applied to the plate electrodes, the bound Sulfo-TAG label produces an ECL signal, which was captured by the plate reader. A quantitative measure of the ECL signal emitted by each well was recorded, and the ECL counts emitted by the standard calibrators were used to generate a standard curve using a 4-parameter logistic (4PL) fit.

OCc1ccccc1 [Benzyl Alcohol, benzyl alcohol]
BA content ([1]; Study 2, 25° C., 100 rpm shaking for up to 72 hours): at least 0.75%
Tested Benzyl Alcohol Concentration ([1]; T = 0): 0.91%
Tested Benzyl Alcohol Concentration ([1]; T = 24 hours): 0.78%
Tested Benzyl Alcohol Concentration ([1]; T = 48 hours): 0.76%
Tested Benzyl Alcohol Concentration ([1]; T = 72 hours): 0.78%
antimicrobial property ([2]; BA 0.17% alone (single pump target concentration)): does not inhibit growth
antimicrobial property ([2]; BA 0.9% (concentration in Stabilizer 1), P. aeruginosa and C. albicans): both bactericidal and fungicidal
BA concentration that provided sufficient anti-microbial activity ([2]; previous study): 0.61%
BA level that results in solution instability or immiscibility ([3]; stabilizer solution): above 15.5 mg/mL

COC(=O)c1ccc(O)cc1 [MP, methylparaben]
share of the target MP concentration that stays in solution ([3]; concentrated stabilizer solution, pH≤8.0): 30-50%
MP level that produces a final solution above pH 8.4 ([3]; stabilizer solution): above 5.3 mg/mL

polysorbate 80 [PS80]
blocking activity (inhibition of DART-A adsorption) [4]: sufficient blocking activity
